Laboratory results taken from US4696918A, “Solubilized platinum compound” (Johnson Matthey Public Limited Company, priority 1984, dated 1987).
Read-outs that look alike come from different tables or passages of the source.

Columns and labels:
[1] = association with α-cyclodextrin by 1H n.m.r. spectroscopy; format: physicochemical; conditions: D2O, ca. 22° C.; corrected chemical shifts H-3 and H-a vs fraction bound
Protocol: (§1) We have studied the association constant for the preferred compound according to the invention by a micro-calorimetric method which involves measuring the heat evolved when solutions of the platinum(II) compound and α-cyclodextrin are mixed and also by using a ^1 H n.m.r. spectroscopic approach.
For the spectroscopic approach, two types of spectroscopic investigations were performed in D2 O at ca. 22° C. using a Bruker AM250FT Spectrometer. In the first series of experiments, equimolar solutions of Pt(NH3)2.CBDCA and α-cyclodextrin were studied at various dilutions and, in the second series of experiments, the concentration of the platinum complex was kept constant and the concentration of the α-cyclodextrin was varied. When processing the chemical shift data, corrections were made to allow for the tendency of α-cyclodextrin to self-associate. […] The latter was calculated from the equilibrium constant, corrected to the aquamolal scale, obtained from the microcalorimetric measurements.

[2] = cited from earlier work
[3] = distribution of platinum in blood, urine and faeces following intravenous administration; format: in vivo, male Wistar albino rats; conditions: rat, 24 hours
in vivo haematotoxicity = assay: in vivo haematotoxicity; design: species or system male Wistar albino rats; conditions: rat; for haematotoxicity and nephrotoxicity testing, comparison of the two compounds: blood samples days 1, 4, 8, 12 and 16 after injection, haematocrit, white blood cell counts, plasma urea nitrogen
Text: (§2) The kidneys were also subjected to histological examination.

kidneys = assay: in vivo nephrotoxicity; design: species or system male Wistar albino rats; conditions: rat; for histological examination of the kidneys / plasma urea nitrogen levels / urine protein levels (proteinuria): in vivo; for gross nephrotoxicity: from plasma urea nitrogen
Text: as §2

[4] = association with α-cyclodextrin by microcalorimetry; format: physicochemical
Text: as §1
For the microcalorimetry experiments, a solution of the platinum complex (0.02366 mol kg^-1) in water was mixed with a range of aqueous solutions of α-cyclodextrin (ca. 0.01-0.1 mol kg^-1) in a batch calorimeter operating at 25° C. A series of preliminary experiments was performed so that corrections for the contributions arising from the enthalpy of dilution of the two solutes could be made. The expression linking the enthalpy change per mol (ΔH) of Pt(NH3)2.CBDCAto the final molalities of both this guest (G) and the α-cyclodextrin host (H) and to the equilibrium constant (Ka) and the standard enthalpy change (ΔH⊖) for the equilibrium,
H+G.revreaction.H·G,
Ka =ΔH·ΔH⊖ /(ΔH⊖
[H]-ΔH[G])(ΔH⊖ -ΔH) (1)
In the Figure, the filled circles denote experimental points and the line denotes the analysis obtained using Equation (1). It is seen that good correlation is obtained between theory and practice.

N.N.O=C([O-])C1(C(=O)[O-])CCC1.[Pt+4] [Pt(NH3)2.CBDCA, 1,1-cyclobutanedicarboxylatediammineplatinum(II)]
agreement between n.m.r. and thermodynamic results [1]: excellent agreement between the n.m.r. and thermodynamic results
general toxicity ([2]; compared with certain other platinum-containing compounds, particularly cisplatin): relatively non-toxic
kidney toxicity ([2]; relative to cisplatin): reduced dramatically
faecal levels, Pt excretion [3]: 4-5%
urine levels, Pt excretion [3]: 65-67%
haematotoxicity and nephrotoxicity testing, comparison of the two compounds (in vivo haematotoxicity): Results as between the two test compounds were similar
histological examination of the kidneys (kidneys): Some nuclear enlargement of the kidneys
plasma urea nitrogen levels (kidneys): remained constant throughout the study period
urine protein levels (proteinuria) (kidneys): no obvious proteinuria was observed
gross nephrotoxicity (kidneys): no gross nephtrotoxicity
standard entropy change ΔS⊖ ([4]; association with α-cyclodextrin in water, recorded in FIG. 2): -27 J K^-1 mol^-1
tendency to associate with α-cyclodextrin ([4]; in water): very marked tendency to associate with α-cyclodextrin in water
standard enthalpy change ΔH⊖ ([4]; in water, 25° C., association with α-cyclodextrin): -5.02 ± 0.478 kcal/mol
association (equilibrium) constant Ka ([4]; in water, 25° C., α-cyclodextrin host): 199 ± 10 kg/mol
aqueous solubility (attainable concentration) (water): 50 mM

inclusion compound of 1,1-cyclobutanedicarboxylatediammineplatinum(II) and α-cyclodextrin
faecal levels, Pt excretion [3]: 4-5%
urine levels, Pt excretion [3]: 65-67%
haematotoxicity and nephrotoxicity testing, comparison of the two compounds (in vivo haematotoxicity): Results as between the two test compounds were similar
anaemic and myelosuppressive response (in vivo haematotoxicity; inclusion compound compared with Pt(NH3)2.CBDCA alone): slightly less anaemic and myelosuppressive response
histological examination of the kidneys (kidneys): Some nuclear enlargement of the kidneys
plasma urea nitrogen levels (kidneys): remained constant throughout the study period
urine protein levels (proteinuria) (kidneys): no obvious proteinuria was observed
gross nephrotoxicity (kidneys): no gross nephtrotoxicity
aqueous solubility (attainable concentration) (aqueous α-cyclodextrin solution): approximately 200 mM
